Read-outs that look alike come from different tables or passages of the source.

The nature of data set [1]: Cytotoxicity test, alamarBlue assay. The conditions noted are these: mouse, 37 °C, mean ± SD. It counts as cell-based, murine. As to the method:
(§1) The amoeba strain used in this study was the type strain: Acanthamoeba castellanii Neff (ATCC 30010) which was axenically grown in PYG medium (0.75% (w/v) proteose peptone, 0.75% (w/v) yeast extract and 1.5% (w/v) glucose) containing 40 µg/mL of gentamicin (Biochrom AG, Cultek, Granollers, Barcelona, Spain). The murine macrophages J774A.1 (ATCC TIB-67) cell line was cultured in RPMI 1640 medium supplemented with 10% fetal bovine serum at 37 °C and 5% CO2 atmosphere, was used for the cytotoxicity assays. Successively, the evaluated molecules were also tested against two clinical isolates, Acanthamoeba griffini, genotype T3 obtained in a previous study, and Acanthamoeba polyphaga genotype T4 ATCC 30461, both axenically grown in the same medium as A. castellanii Neff.
The cytotoxicity effect of active molecules was evaluated in murine macrophage J774A.1 cell line (ATCC # TIB-67) following the same protocol described above for Acanthamoeba trophozoites. Then, plates containing alamarBlue® were incubated for 24 h at 37 °C in presence of CO2 at 5%.
(§2) The percentage of the growth inhibition, 50% inhibitory concentration (IC50 or CC50), was calculated by nonlinear regression analysis with 95% confidence limits using Sigma Plot 12.0 statistical analysis software (Systat Software). All experiments were performed three times, and the mean values were also calculated. A paired two-tailed t-test was used for analysis of the data. Values of p < 0.05 were considered significant.
For orientation: Alamar Blue is a resazurin reagent that responds to reducing activity.

Data set [2] deals with A. castellanii Neff. In words: Anti-Acanthamoeba activity on trophozoites, alamarBlue colorimetric assay. The conditions noted are these: for IC50: 96 h, read-out: IC50 A. castellanii Neff. It counts as cell-based, Acanthamoeba castellanii Neff. The protocol: as §1
(§3) To evaluate the biological activity of the fractions and molecules, the anti-Acanthamoeba experiments were carried out using the alamarBlue® colorimetric assay, as it was previously described. Briefly, Acanthamoeba strain was seeded in triplicate on 96-well microtiter plates (ThermoFisher™, Waltham, MA, USA) with 50 µL from a stock solution of 5 × 10^4 cells/mL and 50 µL of serial dilutions of the evaluated molecules in each well (1% DMSO was used to dissolve the highest dose of the compounds with no effects on the parasites). Two reference treatments such as chlorhexidine (chlorhexidine digluconate; Alfa Aesar) and voriconazole (Sigma), were used as positive controls. Finally, the alamarBlue® Reagent (Life Technologies, Madrid, Spain) was placed into each well at an amount equal to 10% of the final volume. Plates were incubated for 96 h at 26 °C with a slight agitation until their measurement in the EnSpire® Multimode Plate Reader (Perkin Elmer, Madrid, Spain) using fluorescence, at 570/585 nm.
as §2

Another data set has as its system A. polyphaga. The description is as above. It counts as cell-based. The conditions noted are these: 96 h, read-out: IC50 A. polyphaga. The protocol: as §1, §3, §2
The subject of the next data set is A. griffini. The description is as above. It counts as cell-based. The conditions noted are these: 96 h, read-out: IC50 A. griffini. The protocol:
as §1, §3, §2

Data set [3] relates to A. castellanii Neff. In words: Double-stain assay (Hoechst 33342/PI) for programmed cell death determination. The conditions noted are these: IC90 concentration, 24 h. It counts as cell-based, Acanthamoeba castellanii Neff. As to the method:
10^5 amoebas/well were incubated in a 24-well plate with the previously calculated IC90 of 7OSTS for 24 h. A double-stain apoptosis detection kit (Hoechst 33342/PI) (ThermoFisher™, Waltham, MA, USA) was used to carry out the experiment following the manufacturer’s recommendations. The images were obtained using the EVOS FL Cell Imaging System AMF4300, Life Technologies, USA. The double-staining pattern allows the identification of live cells with low level of fluorescence, cells undergoing PCD with a higher level of blue fluorescence (as chromatin condenses), and dead cells which will show low-blue and high-red fluorescence (as the propidium iodide stain enters the nucleus of dead cells).

Data set [4] relates to A. castellanii Neff. In words: Analysis of mitochondrial membrane potential (JC-1). It counts as cell-based, Acanthamoeba castellanii Neff. The conditions noted are these: IC90, 24 h. As to the method:
The use of JC-1 mitochondrial membrane potential detection kit (Cayman Chemical) it is possible to detect the collapse of an electrochemical gradient across the mitochondrial membrane during apoptosis process. 10^5 amoebas/mL were treated with IC90 of 7OSTS (2) for 24 h, the cells were centrifuged (1000 rpm × 10 min) and suspended in JC-1 buffer. Images were taken on the EVOS FL inverted microscope. The staining pattern allows the identification of two groups in a cellular population: live cells will show only red fluorescence, but cells with low mitochondrial potential (undergoing PCD) will show a higher level of green fluorescence.

Data set [5] relates to A. castellanii Neff. In words: Plasma membrane permeability (SYTOX Green). It counts as cell-based, Acanthamoeba castellanii Neff. The conditions noted are these: IC90, 24 h. As to the method:
In order to detect alterations of the membrane permeability in treated cells, the SYTOX Green (ThermoFischer^TM) assay was performed. Briefly, 10^5 trophozoite were washed and incubated in saline solution with SYTOX Green at a final concentration of 1 μM for 15 min in darkness. After that, IC90 of 7OSTS (2) was added to the cells and incubated for 24 h. Cells were observed and pictures were taken on the EVOS FL inverted microscope.

Data set [6] deals with A. castellanii Neff cysts. In words: In vitro activity against cysts (cysticidal assay, alamarBlue). The conditions noted are these: mature cysts. It counts as cell-based, Acanthamoeba castellanii Neff. The protocol: On the other side, cysticidal activity of 7OSTS (2) was determined also using the alamarBlue™ reagent and confirmed visually by inverted microscopy. Cysts of A. castellaniii Neff were prepared as previously described. First of all, trophozoites were transferred from PYG medium based cultures (trophozoite medium) to Neff’s encystment medium (NEM; 0.1 M KCl, 8 mM MgSO4·7H2O, 0.4 mM CaCl2·2H2O, 1 mM NaHCO3, 20 mM ammediol [2-amino-2-methyl-1,3-propanediol; Sigma Aldrich Chemistry Ltd., Madrid, Spain], pH 8.8, at 25 °C) and were cultured in this medium with gently shaking for a week in order to obtain mature cysts. In order to carry out the cysticidal assay, mature cysts were harvested and washed twice with PYG medium. Serial dilutions of 7OSTS (2) were made in PYG and place onto sterile 96-well microtiter plates. 5·10^4 mature cysts of Acanthamoeba/mL were added to the wells with 50 µL of 7OSTS (2) dilutions. After 7 days of incubation, the plate was centrifuged at 3000 rpm for 10 min. The supernatant was removed and replaced with 100 µL of fresh PYG medium in each well. Finally, 10 μL of the alamarBlue® Reagent was placed into each well. The plates were then incubated for 144 h at 28 °C and the emitted fluorescence was measured with the EnSpire® Multimode Plate Reader (Perkin Elmer, Madrid, Spain) using fluorescence, at 570/585 nm. […]

The test system of data set [7] is A. castellanii Neff. In words: Measurement of ATP levels (CellTiter-Glo). It counts as cell-based, Acanthamoeba castellanii Neff. The conditions noted are these: IC90, 24 h. The protocol: An appropriate level of ATP is necessary to maintain the cell metabolism. The effect of the drug on the ATP production was evaluated by incubating (10^5) of cells/mL with the previously calculated IC90 of 7OSTS (2) using the CellTiter-Glo Luminescent Cell Viability Assay. The luminescence of each assay was measured on the EnSpire®.

In data set [8] the target is cyclin-dependent kinase 4 (CDK4). The arrangement: method as in PMID 19132059, PMID 14552791. The conditions noted are these: cited from earlier work.
Another data set has as its target protein kinase A (PKA). The conditions noted are these: cited from earlier work.
Data set [9] deals with calcium/calmodulin-dependent protein kinase II (CaMKII). The arrangement: method as in PMID 19132059, PMID 14552791. The conditions noted are these: cited from earlier work.
For another data set, the target named is protein kinase C (PKC). The conditions noted are these: cited from earlier work.
Data set [10] concerns human lung, colon, and nasopharyngeal carcinoma cell lines. The arrangement: method as in PMID 3112080. The conditions noted are these: read-out: IC50 cytotoxic activity; cited from earlier work.
Where [11] appears, read: read-out: Macrophage J774A.1 CC50.

What is called CC50 is the concentration at which the toxic effect on the cells reaches its halfway point. By IC50 is commonly meant the concentration at which inhibition is half-maximal. `COC1C(=O)CC2OC1(C)n1c3ccccc3c3c4c(c5c6ccccc6n2c5c31)C(=O)NC4` (centres unmarked) [4’D4’OSTS (3), 4′-demethylamino-4′-oxostaurosporine]: in data set [1] (J774A.1 macrophage cells), the half-maximal cytotoxic concentration (CC50) at 24 h was greater than 40 µM. Moreover, the IC50 in the data set with A. castellanii Neff [2] (trophozoites, 26 °C, mean ± SD) was 7.53 ± 0.73 µM; in the data set with A. polyphaga (trophozoites, 26 °C, mean ± SD), greater than 40 µM; in the data set with A. griffini (trophozoites, 26 °C, mean ± SD), 23.9 ± 0.55 µM.

`CNC1CC2OC(C)(C1OC)n1c3ccccc3c3c4c(c5c6ccccc6n2c5c31)C(=O)NC4=O` (centres unmarked) [7OSTS (2), 7-oxostaurosporine]: the Chromatin condensation entry with A. castellanii Neff [3] is reported as “induces chromatin condensation”. Besides, the cytotoxic concentration (CC50) at 24 h in data set [1] (setting [11]) worked out at 5.2 ± 1.75 µM. In addition, the Mitochondrial membrane potential result with A. castellanii Neff [4] is recorded as “decrease of the mitochondrial membrane potential”. In addition, the IC50 in the data set with A. castellanii Neff [2] was found to be 0.83 ± 0.09 µM; in the data set with A. polyphaga, 5.51 ± 0.09 µM; with A. griffini it was 0.96 ± 0.19 µM; in [6] (Acanthamoeba castellanii) it was 920 ± 330 nM. Moreover, the IC90 in the data set with A. castellanii Neff [2] (read-out: IC90 concentration) stood at 2910 ± 670 nM. Further, in the data set with A. castellanii Neff [5], the Plasma membrane permeability result is on record as “plasmatic membrane damage”. Besides, the Cyst viability result in [6] (incubation up to 144 h) was “non-viable cysts were observed”. For the same molecule, the “ATP level compared to the negative control” value with A. castellanii Neff [7] came to 45%.

Regarding `O=C1NC(=O)c2c1c1c3ccccc3[nH]c1c1[nH]c3ccccc3c21` [Arcyriaflavin A (7), arcyriaflavin A], the concentration for half-maximal inhibition (IC50) in data set [8] is 140 nM; at protein kinase A (PKA), greater than 2 µM; in data set [9], 25 nM; on protein kinase C (PKC), greater than 100 µM; with A. castellanii Neff [2] (trophozoites, 26 °C, mean ± SD), 7.32 ± 0.45 µM; in the data set with A. polyphaga (trophozoites, 26 °C, mean ± SD) it was 7.59 ± 0.73 µM. Also, the IC50 with A. griffini (trophozoites, 26 °C, mean ± SD) is 7.53 ± 1.11 µM.

With `[H]/N=C(\N/C(=N/[H])NCCCCCCNC(=N)NC(=N)Nc1ccc(Cl)cc1)Nc1ccc(Cl)cc1` [Chlorhexidine, chlorhexidine], in data set [1] (J774A.1 macrophage cells), the CC50 at 24 h came to 7.4 ± 0.39 µM. The IC50 in the data set with A. polyphaga (trophozoites, 26 °C, mean ± SD) is 4.76 ± 0.08 µM.

Take `COC1=C(C)O[C@@H]2C[C@@]1(OC)n1c3ccccc3c3c4c(c5c6ccccc6n2c5c31)C(=O)NC4` [ICZ B (4), streptocarbazole B]: in [1] (J774A.1 macrophage cells), the 50% cytotoxic concentration (CC50) at 24 h was greater than 40 µM. The 50% inhibitory concentration (IC50) in the data set on A. castellanii Neff [2] (trophozoites, 26 °C, mean ± SD) is 6.83 ± 2.6 µM; with A. polyphaga (trophozoites, 26 °C, mean ± SD), greater than 40 µM; with A. griffini (trophozoites, 26 °C, mean ± SD), 14.5 ± 0.38 µM.

Consider `O=C1NCc2c1c1c3ccccc3[nH]c1c1[nH]c3ccccc3c21` [K252c (6), K252c], for which the IC50 at protein kinase A (PKA) was 25.7 µM; in the data set on A. castellanii Neff [2] (trophozoites, 26 °C, mean ± SD), 6.17 ± 0.73 µM; in the data set on A. polyphaga (trophozoites, 26 °C, mean ± SD), 5.59 ± 0.34 µM; with A. griffini (trophozoites, 26 °C, mean ± SD), 2.25 ± 0.32 µM.

For the molecule `CO[C@H]1[C@H](O)[C@@H](O)[C@H](n2c3c(Cl)cccc3c3c4c(c5c6cccc(Cl)c6[nH]c5c32)C(=O)NC4=O)O[C@@H]1CO` [Rebeccamycin (5), rebeccamycin], the IC50 in data set [10] was 0.4 to 98 µM; in the data set on A. castellanii Neff [2] (trophozoites, 26 °C, mean ± SD), 5.37 ± 0.23 µM; with A. polyphaga (trophozoites, 26 °C, mean ± SD), 7.47 ± 0.61 µM; in the data set with A. griffini (trophozoites, 26 °C, mean ± SD), 5.02 ± 0.18 µM.

Regarding `CN[C@@H]1C[C@H]2O[C@@](C)([C@@H]1OC)n1c3ccccc3c3c4c(c5c6ccccc6n2c5c31)C(=O)NC4` [STS (1), staurosporine], the CC50 at 24 h in data set [1] (setting [11]) was found to be 8.74 ± 0.72 µM.

In data set [1] (J774A.1 macrophage cells), `C[C@@H](c1ncncc1F)[C@](O)(Cn1cncn1)c1ccc(F)cc1F` [Voriconazole, voriconazole] displayed a cytotoxic concentration (CC50) at 24 h of 7.56 ± 0.77 µM. Further, the 50% inhibitory concentration (IC50) in the data set with A. castellanii Neff [2] (trophozoites, 26 °C, mean ± SD) was found to be 0.94 ± 0.29 µM; in the data set on A. polyphaga (trophozoites, 26 °C, mean ± SD), 10.1 ± 2.21 µM; in the data set on A. griffini (trophozoites, 26 °C, mean ± SD), 0.1 ± 0.02 µM.

The values are drawn from paper PMC6836125, “Antiamoebic Activities of Indolocarbazole Metabolites Isolated from Streptomyces sanyensis Cultures” (Marine Drugs, 2019).
